Key:
PAD4 enzyme [1] = molecular target: T1, PAD4 enzyme (Homo sapiens (Human), UniProt Q9UM07); assay: FP Binding Assay
Protocol: Binding of compounds with PAD4 enzyme was detected by FP assay. PAD4 enzyme was diluted to 1 uM in assay buffer (100 mM HEPES, 50 mM NaCl, 1 mM DTT, 5% Glycerol and 1 mM CHAPS) and added to wells containing various concentration of compounds or DMSO vehicle (1%) in a 384 well black plate. 10 nM of fluorescein labelled probe (JPAD-00085) was added to the plate. Assay plate was incubated for 60 minutes at room temperature before measuring FP reading at FP module (λex 485/λem 535 nm) on Pherastar. IC50 was calculated using XL-fit software model 205. (Ref: Nat Chem Biol. 2015 March; 11(3):189-91).

PAD4 enzyme [2] = molecular target: T1, PAD4 enzyme; assay: Ammonia Release Biochemical Assay (citrullination detected via ammonia release); conditions: PAD4 120 nM, substrate BAEE, 60-min preincubation, read-out: NH3 release
Protocol: Ammonia Release Biochemical Assay
Citrullination assay was detected via ammonia release. PAD4 enzyme was diluted to 120 nM in assay buffer (100 mM HEPES, 50 mM NaCl, 2 mM DDT, 0.6 mg/mL BSA, pH 7.4) added to wells containing various concentration of compound or DMSO vehicle (1% final) in black 384 well plate. Following a 60-min preincubation at room temperature, the reaction was initiated by the addition of substrate (1.5 mM BAEE in 200 mM HEPES, 50 mM NaCl, 350 uM CaCl2, 2 mM, pH 7.4). The reaction was stopped after 60 min by addition of stop/detection buffer containing 50 mM EDTA, 2.6 mM of o-phthaladehyde and 2.6 mM DTT. Assay was incubated at room temperature for 90 min before measuring fluorescence's (λex 405/λem 460 nm) on Tecan reader. IC50 was calculated using XL-fit software model 205. (Ref: Nat Chem Biol. 2015 March; 11(3):189-91).

T1 sequence (Q9UM07 whole entry): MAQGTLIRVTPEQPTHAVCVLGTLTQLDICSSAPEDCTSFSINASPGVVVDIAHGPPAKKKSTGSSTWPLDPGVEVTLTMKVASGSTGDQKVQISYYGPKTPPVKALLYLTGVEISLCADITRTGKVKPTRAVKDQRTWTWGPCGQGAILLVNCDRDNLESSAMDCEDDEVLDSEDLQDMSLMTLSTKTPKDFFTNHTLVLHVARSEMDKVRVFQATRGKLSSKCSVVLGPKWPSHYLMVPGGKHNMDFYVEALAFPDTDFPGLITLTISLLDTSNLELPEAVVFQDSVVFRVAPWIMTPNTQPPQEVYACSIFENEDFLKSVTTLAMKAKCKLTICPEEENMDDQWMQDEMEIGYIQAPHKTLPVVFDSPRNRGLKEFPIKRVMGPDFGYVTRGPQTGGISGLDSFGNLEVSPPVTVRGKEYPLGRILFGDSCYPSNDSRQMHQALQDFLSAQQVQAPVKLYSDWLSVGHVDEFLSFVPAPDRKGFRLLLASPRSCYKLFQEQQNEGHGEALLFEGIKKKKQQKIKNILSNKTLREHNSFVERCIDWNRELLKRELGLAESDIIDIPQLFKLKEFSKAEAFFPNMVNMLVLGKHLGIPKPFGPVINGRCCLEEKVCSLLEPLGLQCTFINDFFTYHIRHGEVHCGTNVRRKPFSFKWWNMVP

IC50 (PAD4 enzyme [2])	SMILES	other results
	N[C@@H]1CCCN(C(=O)c2cc3c4c(c2)nc(-c2cc5ccccc5n2CC2CC2)n4CCO3)C1 [Example 1, (R)-(3-aminopiperidin-1-yl)(2-(1-(cyclopropylmethyl)-1H-indol-2-yl)-3,4-dihydro-5-oxa-1,2a-diazaacenaphthylen-7-yl)methanone]	IC50 (PAD4 enzyme [1]; PAD4 1 uM, 10 nM fluorescein labelled probe JPAD-00085): 1000 to 10000 nM
	COc1ccc(Cn2c(-c3nc4cc(C(=O)N5CCC[C@@H](N)C5)cc5c4n3CCO5)cc3ccccc32)cc1 [Example 19, (R)-(3-aminopiperidin-1-yl)(2-(1-(4-methoxybenzyl)-1H-indol-2-yl)-3,4-dihydro-5-oxa-1,2a-diazaacenaphthylen-7-yl)methanone]	inhibition of PAD4 enzyme activity in FP Binding assay (PAD4 enzyme [1]): actively inhibiting PAD4 enzyme activity
	CN1CCn2c(-c3cc4ccccc4n3CC3CC3)nc3cc(C(=O)N4CCC[C@@H](N)C4)cc1c32 [Example 72, (R)-(3-aminopiperidin-1-yl)(2-(1-(cyclopropylmethyl)-1H-indol-2-yl)-6-methyl-5,6-dihydro-4H-imidazo[1,5,4-de]quinoxalin-8-yl)methanone]	inhibition of PAD4 enzyme activity in FP Binding assay (PAD4 enzyme [1]): actively inhibiting PAD4 enzyme activity
≥ 10000 nM	N[C@@H]1CCCN(C(=O)c2cc3c4c(c2)nc(-c2cc5ccccc5n2CC2CC2)n4CCN3S(=O)(=O)c2ccc(Cl)cc2)C1 [Example 81, (R)-(3-aminopiperidin-1-yl)(6-((4-chlorophenyl)sulfonyl)-2-(1-(cyclopropylmethyl)-1H-indol-2-yl)-5,6-dihydro-4H-imidazo[1,5,4-de]quinoxalin-8-yl)methanone]	
1000 to 10000 nM	CCOCCS(=O)(=O)N1CCn2c(-c3cc4ccccc4n3CC3CC3)nc3cc(C(=O)N4CCC[C@@H](N)C4)cc1c32 [Example 83, (R)-(3-aminopiperidin-1-yl)(2-(1-(cyclopropylmethyl)-1H-indol-2-yl)-6-((2-ethoxyethyl)sulfonyl)-5,6-dihydro-4H-imidazo[1,5,4-de]quinoxalin-8-yl)methanone]	
≤ 1000 nM	Cc1cccc2cc(-c3nc4cc(C(=O)N5CCC[C@@H](N)C5)cc5c4n3CCN5)n(CC3CC3)c12 [Example 84, (R)-(3-aminopiperidin-1-yl)(2-(1-(cyclopropylmethyl)-7-methyl-1H-indol-2-yl)-5,6-dihydro-4H-imidazo [1,5,4-de]quinoxalin-8-yl)methanone]	
≤ 1000 nM	CC(=O)N1CCn2c(-c3cc4ccccc4n3CC3CC3)nc3cc(C(=O)N4CCC[C@@H](N)C4)cc1c32 [Example 85]	
≤ 1000 nM	N[C@@H]1CCCN(C(=S)c2cc3c4c(c2)nc(-c2cc5ccccc5n2CC2CC2)n4CCN3)C1 [Example 86, (R)-(3-aminopiperidin-1-yl)(2-(1-(cyclopropylmethyl)-1H-indol-2-yl)-5,6-dihydro-4H-imidazo [1,5,4-de]quinoxalin-8-yl)methanethione]	
≤ 1000 nM	N[C@@H]1CCCN(C(=O)c2cc3c4c(c2)nc(-c2cc5ccc(F)c(Cl)c5n2CC2CC2)n4CCO3)C1 [Example 87, (R)-(3-aminopiperidin-1-yl)(2-(7-chloro-1-(cyclopropylmethyl)-6-fluoro-1H-indol-2-yl)-3,4-dihydro-5-oxa-1,2a-diazaacenaphthylen-7-yl)methanone]	
1000 to 10000 nM	N[C@@H]1CCCN(C(=O)c2cc3c4c(c2)nc(-c2cc5cccc(Cl)c5n2Cc2cncnc2)n4CCO3)C1 [Example 88, (R)-(3-aminopiperidin-1-yl)(2-(7-chloro-1-(pyrimidin-5-ylmethyl)-1H-indol-2-yl)-3,4-dihydro-5-oxa-1,2a-diazaacenaphthylen-7-yl)methanone]	

SMILES	IC50 (PAD4 enzyme [2])	other results
N[C@@H]1CCCN(C(=O)c2cc3c4c(c2)nc(-c2cc5ccccc5n2CC2CC2)n4CCN3S(=O)(=O)C2CC2)C1 [Example 82, (R)-(3-aminopiperidin-1-yl)(2-(1-(cyclopropylmethyl)-1H-indol-2-yl)-6-(cyclopropylsulfonyl)-5,6-dihydro-4H-imidazo[1,5,4-de]quinoxalin-8-yl)methanone]	1000 to 10000 nM	
